Data taken from patent publication US12729368B2, “Methods and compositions for generating oligodendrocyte progenitor cells” (Trailhead Biosystems Inc., priority 2022, dated 2026).
Several values for one entry are separate records, joined by “and”; a condition that tells them apart may be missing. Identical values can stand only once.

What was measured:
stage 2 early-OPCs = test: HD-DoE 12-factor model for stage 3 (version 1) on stage 2 early-OPCs; type: cell-based, human; conditions: for factor contribution: positive
Description: In another model, the effects of Activin A and TTNPB along with LDN193189, MHY1485, PDGF-AA, AICAR, FGF2, CHIR99021, DBZ, MK2206, Purmorphamine and T3+T4 were tested on gene profile of differentiating cells. When this model was optimized for maximum expression of SOX10 at 54.7, we observed Activin A again had positive regulatory impact on its expression, with factor contribution of 4.7. Other positive factors included MK2206, with the highest factor contribution at 16.2, MHY1485 at 11.49, CHIR99021 at 9.6, DBZ at 9.3, FGF2 at 3.6 and PDGF-AA, with factor contribution less than 3 (FIG. 20).
In this model, we also investigated the conditions of expression of another important OPC gene, CSPG4 (Goldman and Kuypers (2015) Development 142:3983-95: van Tilborg et al. (2018) Glia 66:221-238).
Dynamic profile analysis was used to better assess the impact of the factors on our selected genes and find the combination set that can optimize their expression (FIG. 22). According to this analysis, even though Activin A has a positive effect on SOX10, it decreases level of PDGFRa and OLIG1. […] Moreover, SOX10 is one of the main transcription factors of oligodendrocytes, along with OLIG2 and NKX2-2, that has shown the potential to commit the stem cells to oligodendrocytes in reprogramming efforts (Wang et al. (2014) Proc Natl Acad Sci USA 111:E2885-94; Garciá-León et al. (2018) Stem Cell Reports 10:655-672). […] One of the main challenges of differentiating cells to oligodendrocyte fate is controlling the mixed population and increasing the purity of the culture by committing more cells to oligodendrocyte over neuronal identity. Therefore, DBZ was excluded from the final recipe.
At this point, we investigated the expression profile of a larger group of genes defining oligodendrocyte progenitor population at a later stage, including ID2, CNP and BCAN (Perlman et al. (2020). Glia 68:1291-1303; Goldman and Kuypers (2015) Development 142:3983-95). In this model, these genes were expressed at 1900, 660 and 44, respectively.

OPCs = test: HD-DoE 12-factor model for stage 4 on OPCs, 6 days in culture; type: cell-based, human
Description: To engineer the recipe of stage 4 of differentiation, 48 or 96 different combinations of effectors generated using Design-of-Experiments compression through D-optimality were robotically prepared. The effector combinations were prepared in a basal media and were subsequently added to the cells, which were treated with the stage 1, stage 2 and stage 3 differentiation media as described in the earlier examples to generate OPCs. […] Solutions within the tested space could then be explored to address desirability. […] Benarroch (2009) Neurology 72:1779-1785; Shi et al. (2019) Exp Ther Med, 18:1258-1266).

pre-OPCs [1] = test: HD-DoE 12-factor model for stage 2 (version 1), 3 days on stage 1 pre-OPCs; type: cell-based, human; conditions: for factor contribution: optimized for maximum expression of OLIG2 at 1841.6
Text: To engineer the recipe of stage 2 of differentiation, cells were first cultured in the stage 1 media described in Example 1 and then treated with combinations of 8 or 12 factors for 3 days and the gene expression of cells in each condition was modeled. At this point, due to short duration of culture (only six days in vitro), we decided to focus on maximal expression of OLIG2 and maintenance of high expression of NKX2-2, while initiating expression of SOX10, OLIG1 and PDGFRa, to guide the cells towards oligodendrocyte fate (Emery and Lu (2015). Cold Spring Harb Perspect Biol. 7:a020461; Perlman et al. (2020). Glia 68:1291-1303; Goldman and. Kuypers (2015) Development 142:3983-95).
In one 12-factor model, the individual and combinatorial impact of SUN 11602 an agonist for FGF signaling pathway, FGF2, Activin A an activator of one of the receptors of TGF-b superfamily, A 8301, an inhibitor of TGF-b pathway, CHIR99021 a WNT activator, AGN193109 a RA antagonist, MK2206 an AKT inhibitor, Purmorphamine an agonist of SHH signaling pathway, AZD3147 an antagonist of mTOR pathway, MHY1485 an agonist of mTOR pathway, SC79 an agonist of AKT pathway and G06983 an inhibitor of PKC pathway, were tested.
Dynamic profile analysis was used to assess the expression levels of other genes of interests, such as NKX2-2, OLIG1 and SOX10, while the model is maximized for OLIG2. Activin A and SUN 11602 were brought down to zero due to their very low factor contribution. We observed when the model is optimized, the expression level of NKX2-2 is at 3000, PDGFRa at 1000, OLIG1 at 80 and SOX10 at 15 (FIG. 12).

pre-OPCs [2] = test: HD-DoE 8-factor model for stage 2 (version 2) on pre-OPCs; type: cell-based, human; conditions: for factor contribution: positive
Description: To engineer the recipe of stage 2 of differentiation, cells were first cultured in the stage 1 media described in Example 1, then, 48 or 96 different combinations of effectors generated using Design-of-Experiments compression through D-optimality were robotically prepared. The effector combinations were prepared in a basal media and were subsequently added to the cells, which were then allowed to differentiate. Three days later RNA extraction was performed, and gene expression was obtained using quantitative PCR analysis. The data was normalized and modeled using partial least squares regression analysis to the effector design, resulting in the generation of gene-specific models, which after model tuning for maximal predictive power, provided explanation of the effectors ability to control the expression of individual genes, combinatorically, and individually. Solutions within the tested space could then be explored to address desirability.
At this point, due to short duration of culture (only six days in vitro) we decided to focus on maximal expression of OLIG2 and maintenance of high expression of NKX2-2, while initiating expression of SOX10, OLIG1 and PDGFRa, to guide the cells towards oligodendrocyte fate (Emery and Lu (2015). Cold Spring Harb Perspect Biol. 7:a020461; Perlman et al. (2020). Glia 68:1291-1303; Goldman and Kuypers (2015) Development 142:3983-95). In one 8-factor model, the individual and combinatorial impact of CHIR99021 (a WNT pathway agonist), AGN193109 (an RA pathway antagonist), FGF-2 (an FGFR agonist), Purmorphamine (an SHH pathway agonist), AICAR (an AMPK agonist), GW3965 (an LXR pathway agonist), GW590735 (a PPAR-a agonist) and AZD3147 (a mTOR antagonist) on further differentiation of cells were tested.

[3] = tested on: human pluripotent stem cells; test: HD-DoE #2: 13-factor model, differentiation toward anterior neuroectoderm, gene expression; type: cell-based
Text: To further enhance the conditions for oligodendrocyte differentiation from pluripotency, we performed an additional HD-DoE experiment. We obtained additional gene regulatory models that were used for preparation of a differentiation protocol. The basis of this was a 13-factor HD-DoE experiment with focus on initiation of differentiation of cells toward anterior neuroectoderm. In this model, we focused on expression of FEZF2 and OTX2.
As shown in the results summarized in FIG. 4, the model was optimized for highest expression of OTX2 at 12755.9. According to the model of high expression of OTX2, seven effectors had positive contribution including MK2206, PD0325901, CHIR99021, LDN193189, Go6983, PD173074 and BLU9931 with highest factor contribution of 22.2 for MK2206 and lowest factor contribution of 1.7 for PD173074 and BLU9931.
As shown in the results summarized in FIG. 5, the model was optimized for highest expression of FEZF2 at 4466. When the model was optimized for maximum expression level of FEZF2, three effectors including LDN193189 with factor contribution of 19.5, PD0325901 with factor contribution of 14.6 and MK2206 with factor contribution of 12.3 were common with previous condition and three new effectors including purmorphamine-500 nM, XAV939 and SC79 were introduced.
As shown in the results summarized in FIG. 6, to fine-tune the recipe and find the optimum combination of factors for high expression of both OTX2 and FEZF2, dynamic profiling analysis was done. […] Therefore, these two factors were added to the optimized culture recipe.

[4] = tested on: cells cultured in stage 1 and stage 2 differentiation media; test: HD-DoE 8-factor model for stage 3 (version 2); type: cell-based, human; conditions: positive
Description: To further differentiate the cells to an oligodendrocyte progenitor identity, additional HD-DoE experiments were performed on the cells that were cultured in stage 1 and stage 2 differentiation media. After 3 days, gene expression of cells in different combinatorial conditions were investigated. At this time, we focused on maximal expression of signature oligodendrocyte progenitor genes such as SOX10, OLIG1 and PDGFRa (Goldman and Kuypers (2015) Development 142:3983-95: Marques et al. (2016) Science 352:1326-1329). In one 8-factor model, individual and combinatorial effects of TTNPB (an RA agonist), CHIR99021, FGF-2, IGF-1, AGN193109, Purmorphamine, MHY1485 (a mTOR pathway agonist) and SC79 (an AKT pathway agonist) were tested to guide the cells toward a SOX10/PDGFRa positive population. […] CHIR99021 was also positive, with a factor contribution of 8.1 (FIG. 33).
Other positive factors were IGF-1, with a factor contribution of 11.2, CHIR99021, with a factor contribution of 8.5 and TTNPB, with a factor contribution below 1 (FIG. 34).
To confirm the impact of TTNPB, FGF-2 and IGF-1 on a bigger scale, we investigated the expression profile of a larger group of genes defining late oligodendrocyte progenitor population, such as ID2, CSPG4, FYN, SOX8, PLP1 and BCAN (Perlman et al. (2020). Glia 68:1291-1303; Goldman and Kuypers (2015) Development 142:3983-95; van Tilborg et al. (2018) Glia 66:221-238) and neuronal genes such as NEUROD1, NEUROG1 and NEUROG2 in presence of IGF-1, FGF-2 or TTNPB.

[5] = optimized for maximum expression of OLIG1 at 454.7
[6] = optimized for maximum expression of OLIG2 at 3325
[7] = model optimized for highest expression of OTX2 at 12755.9, positive contribution
[8] = optimized for maximum expression of SOX10 at 54.7
[9] = dynamic profile, model maximized for OLIG2
[10] = optimized for maximum expression of CSPG4 at 38.6
[11] = dynamic profiling analysis, 13-factor model

NC(=O)c1ncn([C@@H]2O[C@H](CO)[C@@H](O)[C@H]2O)c1N [AICAR]
effect on late OPC genes ID2, CNP and BCAN (stage 2 early-OPCs; factor effect plots): positively regulates | factor contribution (OPCs; optimized for PLP1 at 3600, negative impact): 12 and 11.8

C[C@H]1COCCN1c1cc(C2(S(=O)(=O)C3CC3)CC2)nc(-c2ccc(NC(=S)NCCO)cc2)n1 [AZD3147]
factor contribution (pre-OPCs [1]; positive regulatory effect): 5.2 | factor contribution (pre-OPCs [2]; [5]): 26.7 and 26.76 | factor contribution (pre-OPCs [2]; [6]): 30.2

C=CC(=O)Nc1cccc(C)c1Nc1ncc2cc(-c3c(Cl)c(OC)cc(OC)c3Cl)ccc2n1 [BLU9931]
factor contribution [3, 7]: 1.7

Cc1c[nH]c(-c2cnc(NCCNc3ccc(C#N)cn3)nc2-c2ccc(Cl)cc2Cl)n1 [CHIR99021]
factor contribution (stage 2 early-OPCs; [8]): 9.6 | factor contribution (pre-OPCs [2]; [5]): 22.8 | factor contribution (pre-OPCs [2]; [6]): 17.96 | factor contribution ([4]; optimized for SOX10 at 41.04): 8.1 | factor contribution ([4]; optimized for maximum expression of PDGFRa at 853.4): 8.5

C[C@H](NC(=O)Cc1cc(F)cc(F)c1)C(=O)N[C@@H]1C(=O)N(C)c2ccccc2-c2ccccc21 [DBZ]
effect on neuronal genes (stage 2 early-OPCs; dynamic profile / factor effect plots): increases neuronal genes | factor contribution (stage 2 early-OPCs; [8]): 9.3

C[C@H](NC(=O)Cc1cc(F)cc(F)c1)C(=O)N[C@@H]1C(=O)N(C)c2ccccc2-c2ccccc21 [GSI-XX]
effect on expression of neuronal genes NeuroG1, NeuroG2 and NeuroD1 (OPCs; dynamic profile analysis): positively regulates | factor contribution (OPCs; optimized for CNP at 1790, positive): 7

Cc1nc(-c2ccc(C(F)(F)F)cc2)sc1C(=O)NCc1ccc(OC(C)(C)C(=O)O)cc1 [GW590735]
impact on SOX10 and NKX2-2 expression (pre-OPCs [2]; [9]): negative impact | factor contribution (pre-OPCs [2]; [5]): 3.1 | factor contribution (pre-OPCs [2]; [6]): 5.4

COc1ccc2c(c1)c(C1=C(c3c[nH]c4ccccc34)C(=O)NC1=O)cn2CCCN(C)C [Go6983]
effect on expression of SOX10 (pre-OPCs [1]; [9]): positively regulate | impact on PDGFRA (pre-OPCs [1]; [9]): significant negative impact | factor contribution (pre-OPCs [1]; negative impact): 10.2 and 10.22

NC1(c2ccc(-c3nc4ccn5c(=O)[nH]nc5c4cc3-c3ccccc3)cc2)CCC1 [MK2206]
factor contribution ([3]; model optimized for highest expression of FEZF2 at 4466, positive): 12.3 | factor contribution [3, 7]: 22.2 | factor contribution (pre-OPCs [1]; positive regulatory effect): 5.3 | factor contribution (stage 2 early-OPCs; [10]): 5.2 | factor contribution (stage 2 early-OPCs; [8]): 16.2

CCN(CC)CCCCNc1ncc2cc(-c3cc(OC)cc(OC)c3)c(NC(=O)NC(C)(C)C)nc2n1 [PD173074]
factor contribution [3, 7]: 1.7

Oc1nc(-c2ccc(C(F)(F)F)cc2)nc2c1CSCC2 [XAV939]
effect on expression of FEZF2 [3, 11]: significant positive effects | impact on expression level of OTX2 [3, 11]: no negative impact

PDGF-AA: PDGFR pathway agonist
factor contribution (stage 2 early-OPCs; [10]): 2.9 | factor contribution (stage 2 early-OPCs; [8]): less than 3
